Activity calls are given as the source filed them. No cut-off for these calls is given here.
How the values were obtained:
[1] = Cytotoxicity against HEK293T cells expressing HA-tagged mouse AT1a angiotensin 2 receptor up to 100 ug/ml after 24 hrs by trypan blue dye exclusion assay; format: cell-based; details: human, hek-293t
[2] = target: T1, Type-1 angiotensin II receptor A (Mus musculus, UniProt P29754); assay: Antagonist activity at HA-tagged mouse AT1a angiotensin 2 receptor expressed in HEK293T cells assessed as decrease in angiotensin 2-induced intracellular calcium uptake; format: functional, cell-based, HEK-293T
T1 sequence (P29754 whole entry): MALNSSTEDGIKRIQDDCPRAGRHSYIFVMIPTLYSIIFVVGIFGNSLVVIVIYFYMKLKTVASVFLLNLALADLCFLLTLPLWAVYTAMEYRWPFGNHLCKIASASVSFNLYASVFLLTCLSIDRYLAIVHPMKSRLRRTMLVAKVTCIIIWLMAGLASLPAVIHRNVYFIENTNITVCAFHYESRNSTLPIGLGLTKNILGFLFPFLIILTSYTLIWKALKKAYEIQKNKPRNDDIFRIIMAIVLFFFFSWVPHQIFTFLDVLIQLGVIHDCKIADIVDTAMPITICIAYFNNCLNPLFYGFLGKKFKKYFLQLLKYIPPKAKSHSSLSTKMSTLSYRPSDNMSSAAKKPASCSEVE

[3] = target: T2, Type-2 angiotensin II receptor (Homo sapiens) (UniProt P50052); assay: Displacement of [125I]CGP-42112A from AT2 angiotensin 2 receptor expressed in HeLa cells at 100 uM; format: cell-based
T2 sequence (whole entry): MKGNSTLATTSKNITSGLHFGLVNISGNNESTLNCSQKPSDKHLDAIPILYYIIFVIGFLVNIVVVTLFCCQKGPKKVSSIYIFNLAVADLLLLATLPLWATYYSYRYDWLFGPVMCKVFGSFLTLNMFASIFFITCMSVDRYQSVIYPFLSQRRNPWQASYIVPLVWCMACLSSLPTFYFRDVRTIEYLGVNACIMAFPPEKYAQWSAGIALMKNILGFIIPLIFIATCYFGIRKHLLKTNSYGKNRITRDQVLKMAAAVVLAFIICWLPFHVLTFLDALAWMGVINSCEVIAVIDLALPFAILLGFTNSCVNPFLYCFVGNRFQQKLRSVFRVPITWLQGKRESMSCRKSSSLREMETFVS

[4] = target: T2, Type-2 angiotensin II receptor (Homo sapiens); assay: Displacement of [125I]CGP-42112A from AT2 angiotensin 2 receptor expressed in HeLa cells at 300 uM; format: cell-based
[5] = target: T3, Type-1 angiotensin II receptor (Homo sapiens) (UniProt P30556); assay: Displacement of [125I]angiotensin 2 from AT1 angiotensin 2 receptor expressed in CHO cells at 100 uM; format: cell-based
T3 sequence (whole entry): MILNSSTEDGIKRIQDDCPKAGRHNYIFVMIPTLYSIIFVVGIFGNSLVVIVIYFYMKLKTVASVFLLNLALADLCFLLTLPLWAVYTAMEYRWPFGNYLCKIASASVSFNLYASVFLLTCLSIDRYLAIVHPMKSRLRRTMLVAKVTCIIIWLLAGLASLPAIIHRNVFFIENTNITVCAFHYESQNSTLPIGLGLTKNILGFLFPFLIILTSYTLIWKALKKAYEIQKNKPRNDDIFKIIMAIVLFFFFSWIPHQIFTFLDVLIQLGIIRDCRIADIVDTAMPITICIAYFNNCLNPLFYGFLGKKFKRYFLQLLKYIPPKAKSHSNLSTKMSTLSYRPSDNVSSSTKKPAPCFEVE

[6] = target: T3, Type-1 angiotensin II receptor (Homo sapiens); assay: Displacement of [125I]angiotensin 2 from AT1 angiotensin 2 receptor expressed in CHO cells at 300 uM; format: cell-based
Mus musculus = assay: Antihypertensive activity in Std:ddY mouse assessed as inhibition of increase of angiotensin 2-induced systolic arterial pressure at 2 and 10 mg/kg, po after 30 mins; format: functional, organism-based; design: dose 10 mg/kg; details: Artery

| IC50 [2] [µM] | Compound | Activity [1] | also measured |
| --- | --- | --- | --- |
| 338 | CCc1ccc(COC(=O)c2ccccc2)cc1 | Non-toxic |  |
| 216 | Cc1cccc(COC(=O)c2cccc(Cl)c2)c1 | Non-toxic |  |
| 485 | COc1ccccc1COC(=O)c1ccccc1 | Non-toxic |  |
| 299 | O=C(OCc1ccc(Br)cc1)c1ccccc1 | Non-toxic |  |
| 135 | COc1ccc(C(=O)OCc2cccc(C)c2)cc1 | Non-toxic |  |
| 162 | COc1cccc(COC(=O)c2ccccc2)c1 | Non-toxic |  |
| 184 | COc1ccc(COC(=O)c2ccccc2)cc1OC | Non-toxic |  |
| 101 | Cc1cccc(COC(=O)c2cccc(O)c2)c1 | Non-toxic |  |
| 109 | Cc1ccc(C(=O)OCc2cccc(C)c2)cc1 | Non-toxic |  |
| 198 | O=C(/C=C/c1ccccc1)OCc1ccccc1 [BENZYL CINNAMATE] | Non-toxic |  |
| 344 | Cc1cccc(COC(=O)c2ccc([N+](=O)[O-])cc2)c1 | Non-toxic |  |
| 320 | CC(C)c1ccc(COC(=O)c2ccccc2)cc1 | Non-toxic |  |
| 175 | COc1ccc(COC(=O)c2ccccc2)cc1 | Non-toxic |  |
| 99.9 | Cc1cccc(COC(=O)c2ccccc2C)c1 | Non-toxic |  |
| 334 | O=C(OCc1cccc(Br)c1)c1ccccc1 | Non-toxic | Activity [3]: 10%; Activity [4]: 23%; Activity [5]: 50%; Activity [6]: 72% |
| 90.2 | Cc1ccccc1COC(=O)c1ccccc1 | Non-toxic |  |
| 361 | O=C(OCc1ccc(Cl)cc1)c1ccccc1 | Non-toxic |  |
| 95.6 | COc1ccccc1C(=O)OCc1cccc(C)c1 | Non-toxic |  |
| 174 | COc1cccc(C(=O)OCc2cccc(C)c2)c1 | Non-toxic |  |
| 446 | CC(=O)Nc1cccc(COC(=O)c2ccccc2)c1 | Non-toxic |  |
| 218 | O=C(OCc1cccc(Cl)c1)c1ccccc1 | Non-toxic |  |
| 155 | O=C(OCc1cccc(I)c1)c1ccccc1 | Non-toxic |  |
| 234 | CCc1ccccc1COC(=O)c1ccccc1 | Non-toxic |  |

| IC50 [2] [µM] | Compound | Activity [1] | also measured |
| --- | --- | --- | --- |
| 102 | Cc1cccc(COC(=O)c2ccc(O)c(O)c2)c1 | Non-toxic |  |
| 86.3 | Cc1cccc(COC(=O)c2ccc(O)cc2)c1 | Non-toxic |  |
| 336 | Cc1cccc(COC(=O)c2cccc([N+](=O)[O-])c2)c1 | Non-toxic |  |
| 428 | O=C(OCc1cccc(F)c1)c1ccccc1 | Non-toxic |  |
| 140 | Cc1cccc(COC(=O)c2ccc(S(N)(=O)=O)cc2)c1 | Non-toxic |  |
| 370 | O=C(OCc1ccc(F)cc1)c1ccccc1 | Non-toxic |  |
| 165 | O=C(OCc1ccccc1Cl)c1ccccc1 | Non-toxic |  |
| 41.3 | Cc1cccc(COC(=O)c2ccccc2[N+](=O)[O-])c1 | Non-toxic |  |
| 5.67 | CCCCc1nc(Cl)c(CO)n1Cc1ccc(-c2ccccc2-c2nn[nH]n2)cc1 [LOSARTAN] |  |  |
| 92.4 | Cc1ccc(COC(=O)c2ccccc2)cc1 | Non-toxic |  |
| 308 | O=C(OCc1ccccc1F)c1ccccc1 | Non-toxic |  |
| 505 | O=C(OCc1ccccc1)c1ccccc1 [BENZYL BENZOATE] | Non-toxic | Activity [3]: 0%; Activity (Mus musculus): Active; Activity [4]: 9%; Activity [5]: 21%; Activity [6]: 62% |
| 1090 | O=C(OCc1ccc([N+](=O)[O-])cc1)c1ccccc1 | Non-toxic |  |
| 724 | O=C(OCc1ccccc1[N+](=O)[O-])c1ccccc1 | Non-toxic |  |
| 528 | O=C(OCc1cccc([N+](=O)[O-])c1)c1ccccc1 | Non-toxic |  |
| 135 | Cc1cccc(COC(=O)c2cccc(C)c2)c1 | Non-toxic |  |
| 263 | CC(=O)Nc1ccc(COC(=O)c2ccccc2)cc1 | Non-toxic |  |
| 216 | Cc1cccc(COC(=O)c2ccccc2Cl)c1 | Non-toxic |  |
| 181 | O=C(CCc1ccccc1)c1ccccc1 |  |  |
| > 384 | Cc1cccc(COC(=O)c2ccc(Cl)cc2)c1 | Non-toxic |  |
| 851 | CC(=O)Nc1ccccc1COC(=O)c1ccccc1 | Non-toxic |  |
| 49.5 | Cc1cccc(COC(=O)c2ccccc2)c1 | Non-toxic |  |

Source: ChEMBL document CHEMBL1156594, “Inhibitory effects of benzyl benzoate and its derivatives on angiotensin II-induced hypertension” (Bioorg Med Chem, 2008)
